Assay results: the NIST ThermoML archive (doi:10.1021/je101230a)
± gives the expanded uncertainty stated by the source.

Conditions: Crystal; DTA

Q: For CCc1ccc(CCOc2ccc(CC3SC(=O)NC3=O)cc2)nc1.Cl (stereo unspecified), which Normal melting temperature is on record?
A: Its Normal melting temperature is 198.00 ± 1.1 °C.
